Results: patent US11304955B2, “Small-molecule povidone analogs in coamorphous pharmaceutical phases” (ISP INVESTMENTS LLC, priority 2017, dated 2022)

Assays:
[1] = Hot stage microscope experiments with increasing drug:bisVCap ratios; assay type: physicochemical; conditions: melted, cooled to room temperature
Experimental: One major problem with PVP as an amorphous stabilizer is that often a large amount is required for stabilization of the amorphous phase. This often leads to very large pills or dosage forms which consist of multiple tablets. Thus further hot stage microscope and DSC experiments of bisVCap mixtures with carisoprodol, carbamazepine, isoniazid and ROY were performed with increasing drug:bisVCap ratios to determine the minimum ratio of coformer required to maintain the API in an amorphous state.
For the microscope experiments the drugs and bisVCap were ground in the desired ratio, heated until all the sample had melted then cooled back to room temperature and analyzed by polarized light microscopy.
(§1) A Linkam LTS420 heating stage attached to a Olympus XC50 microscope was used to heat the samples. Samples were placed on a glass microscope slide with a thin glass cover slide. For the amorphous material screening compounds were ground together in various drug to coformer ratio using 0.05 g of coformer in each case and heated at 30° C. min^−1 until the all of the sample had melted. Samples were then removed from the hot stage and allowed to cool. BisVCap was ground in 1:1 molar mixture with carbamazepine, carisoprodol, isoniazid and ROY. The carbamazepine/bisVCap sample was heated from room temperature to 170° C. at a rate of 10° C. min^−1, cooled at ° C. min^−1 to −40° C., then heated at 10° C. min^−1 to 165° C. The carisoprodol/bisVCap sample was heated from room temperature to 150° C. at a rate of 10° C. min^−1, cooled at ° C. min^−1 to −75° C., then heated at 10° C. min^−1 to 145° C. min^−1. The isoniazid/bisVCap sample was heated from room temperature to 175° C. at a rate of 10° C. min^−1, cooled at ° C. min^−1 to −100° C., then heated at 10° C. min^−1 to 125° C. min^−1. The ROY/bisVCap sample was heated from room temperature to 150° C. at a rate of 10° C. min^−1, cooled at ° C. min^−1 to −90° C., then heated at 10° C. min^−1 to 155° C. min^−1.

[2] = ground 1:1 mixture with bisVCap, heated to 150-180° C., cooled to −85° C., second heating cycle
[3] = assay type: physicochemical; conditions: for crystallinity of ROY sample on the basis of birefringence: coformer ground 1:1 molar with ROY (PVP K12, PVCap 1:1 by mass; ROY control without coformer), melted, cooled to room temperature overnight
Excerpt: Compounds 3-8 and VCap were all ground using a mortar and pestle in a 1:1 molar ratio with ROY. Comparative experiments were also undertaken in the same way with PVP (K12) (1) and PVCap (2) in a 1:1 ratio by mass with ROY. The samples were then placed on a microscope slide and covered with a thin, glass cover slip and heated using a hot stage optical microscope until all material had melted. The samples were then removed from the hot stage and allowed to cool to room temperature overnight. The cooled samples were examined under a microscope fitted with cross polarizing filters and assessed for crystallinity on the basis of birefringence.
as §1

[4] = Heat-cool-heat cycles on hot stage with polarized light microscope; assay type: physicochemical; conditions: 1:1 mixture with bisVCap
Excerpt: The same heat-cool-heat cycles used in the DSC experiments were reproduced using a hot stage attached to a polarized light microscope for 1:1 mixtures of carisoprodol, carbamazepine, isoniazid and ROY with bisVCap.
as §1

[5] = Screening of bisVCap and bisVP with a range of drugs (hot stage melt, polarized optical microscopy); assay type: physicochemical; conditions: for crystallinity by polarized light microscopy, drug with bisVCap: drug:bisVCap 1:1 mol ratio, ground, melted, cooled, overnight / 18 hours at room temperature
Experimental: Control samples without lactam coformers were also prepared for comparison. The slides were then allowed to cool to room temperature. The samples were examined using polarized optical microscopy after storing them overnight and again two weeks after melting to assess their crystallinity. Polarized optical micrographs were observed.
as §1, with “For the amorphous material screening compounds were ground together in various drug to coformer ratio using 0.05 g of coformer in each case and heated at 30° C. min^−1 until the all of the sample had melted.” left out

[6] = Dynamic vapor sorption (DVS) water uptake; assay type: physicochemical; conditions: for hygroscopicity: DVS, small mass increase and lack of hysteresis; for mass increase in DVS plot: up to 90% relative humidity
Experimental: A significant issue with PVP as an amorphous stabilizer is its hydroscopicity, and amorphous materials are frequently hygroscopic. Dynamic vapor sorption (DVS) has been used to compare the water uptake of bisVCap and PVP. […] However, amorphous forms have more apparent solubility than crystal forms and it is possible that amorphous bisVCap could absorb much more water than the crystalline form.
DVS was performed using an SMS DVS-1 with a 10% RH step between humidity values with equilibrium achieved at 0.01% weight change before moving to the next step. Methods began at the humidity of the room at ambient which was measured by a Rotronic A/H hygrometer. The humidity was then increased to 90% RH before cycling to 0% RH, to 90% RH, to 0% RH. Samples weighing between 5-20mg were used.

With `Cc1cc(C#N)c(Nc2ccccc2[N+](=O)[O-])s1` [ROY, 5-methyl-2-[(2-nitrophenyl)amino]-3-thiophenecarbonitrile] the “visible crystallization by polarized light microscopy” value (shortened to “visible crystallization”) ([1]; 2:1 drug:bisVCap molar ratio) was “no visible crystallization”, the “visible crystallization” value ([1]; 3:1 drug:bisVCap ratio) was “formed crystals overnight” and the “DSC behaviour of mixture with bisVCap” value [2] was “lacking features assignable to decomposition, recrystallization or melting endotherms in the second heating cycle”. For the same molecule, the “crystallinity of ROY sample on the basis of birefringence” value [3] was “readily crystallizes”, the “time to ROY crystallization upon cooling” value ([3]; melt of ROY alone or 1:1 molar with coformer, cooling to room temperature) was “within a few minutes” and the “coamorphous phase formation in hot stage heat-cool-heat cycle” value (shortened to “coamorphous phase formation”) [4] was “confirm coamorphous phase formation”.

For `CCCCC(=O)N(Cc1ccc(-c2ccccc2-c2nnn[nH]2)cc1)[C@H](C(=O)O)C(C)C` [Valsartan], the “crystallinity by polarized light microscopy, drug on its own” value ([5]; control sample without lactam coformer, melted and cooled to room temperature) was “remains amorphous”.

In the case of `CCOC(=O)c1ccc(N)cc1` [benzocaine], the “crystallinity by polarized light microscopy, drug with bisVCap” value (from here on “crystallinity … with bisVCap”) [5] is reported as “crystallized overnight”.

For `Cn1c(=O)c2c(ncn2C)n(C)c1=O` [caffeine], the “crystallinity … with bisVCap” value [5] was “crystallized overnight”.

In the case of `NC(=O)N1c2ccccc2C=Cc2ccccc21` [carbamazepine], the “visible crystallization” value ([1]; 2:1 drug:bisVCap molar ratio) is reported as “no visible crystallization”, the “visible crystallization” value ([1]; 3:1 drug:bisVCap ratio) is reported as “formed crystals overnight” and the “DSC behaviour of mixture with bisVCap” value [2] is reported as “lacking features assignable to decomposition, recrystallization or melting endotherms in the second heating cycle”. The “crystallinity … with bisVCap” value [5] was “appear amorphous” and the “coamorphous phase formation” value [4] was “confirm coamorphous phase formation”.

For `CCCC(C)(COC(N)=O)COC(=O)NC(C)C` (stereo not drawn) [carisoprodol], the “visible crystallization” value ([1]; 2:1 drug:bisVCap molar ratio) was “no visible crystallization”, the “visible crystallization” value ([1]; 3:1 drug:bisVCap ratio) was “did not show any visible crystallization” and the “visible crystallization” value ([1]; 4:1 drug:bisVCap ratio) was “formed crystals overnight”. For the same molecule, the “DSC behaviour of mixture with bisVCap” value [2] was “lacking features assignable to decomposition, recrystallization or melting endotherms in the second heating cycle”, the “crystallinity … with bisVCap” value [5] was “appear amorphous” and the “coamorphous phase formation” value [4] was “confirm coamorphous phase formation”.

In the case of `NCCc1ccc(O)c(O)c1` [dopamine], the “crystallinity … with bisVCap” value [5] is reported as “appear amorphous”.

In the case of `CCc1cc(C(N)=S)ccn1` [ethionamide], the “DSC behaviour of mixture with bisVCap” value [2] is reported as “sharp and overlapping endothermic peaks on heating, which arise from decomposition” and the “crystallinity … with bisVCap” value [5] is reported as “appear amorphous”.

With `CC(C)Cc1ccc(C(C)C(=O)O)cc1` (stereo not drawn) [ibuprofen] the “DSC behaviour of mixture with bisVCap” value [2] was “sharp and overlapping endothermic peaks on heating, which arise from decomposition” and the “crystallinity … with bisVCap” value [5] was “appear amorphous”.

With `NNC(=O)c1ccncc1` [isoniazid] the “visible crystallization” value ([1]; 2:1 drug:bisVCap molar ratio) was “no visible crystallization”, the “visible crystallization” value ([1]; 3:1 drug:bisVCap ratio) was “formed crystals overnight” and the “DSC behaviour of mixture with bisVCap” value [2] was “lacking features assignable to decomposition, recrystallization or melting endotherms in the second heating cycle”. The “crystallinity … with bisVCap” value [5] was “appear amorphous” and the “coamorphous phase formation” value [4] was “confirm coamorphous phase formation”.

For `CN(C)C(=N)N=C(N)N` [metformin], the “crystallinity … with bisVCap” value [5] was “crystallized overnight”.

With `Cc1cccc(C)c1OCC(C)N` (stereo not drawn) [mexiletine] the “DSC behaviour of mixture with bisVCap” value [2] was “sharp and overlapping endothermic peaks on heating, which arise from decomposition” and the “crystallinity … with bisVCap” value [5] was “appear amorphous”.

With `Cc1c(Cl)cccc1Nc1ccccc1C(=O)O` [tolfenamic acid] the “DSC behaviour of mixture with bisVCap” value [2] was “sharp and overlapping endothermic peaks on heating, which arise from decomposition” and the “crystallinity … with bisVCap” value [5] was “appear amorphous”.

With “(bis)vinylcaprolactam [Amorphous bisVCap]” the hygroscopicity [6] was “not significantly hygroscopic” and the “mass increase in DVS plot” value [6] was 1.2%.

For (bis)vinylcaprolactam [bisVCap], the hygroscopicity [6] was “not hydroscopic”, the “stability of coamorphous phase with ROY on storage” value [3] was “stable for prolonged periods” and the “crystallinity of ROY sample on the basis of birefringence” value [3] was “gives a coamorphous phase with ROY”.

For “(bis)vinylcaprolactam [crystalline bisVCap]”, the hygroscopicity [6] was “not significantly hygroscopic” and the “mass increase in DVS plot” value [6] was 0.35%.
